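1) Cells in 96-well plates. 2) Compound, 48 h, 5 concentrations. 3) Linear interpolation between surrounding doses. 4) Unreached endpoint = highest concentration. GI50 = concentration required for 50% inhibition of growth.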 Activity calls are given as the source filed them. Rule as the data show it: active = GI50 up to about 1.1 µM and inactive = higher.
Experiments:
Experiment in all cases: growth of human tumour cells (NCI), 48 h
[1] = system: 786-0
[2] = system: A498
[3] = system: A549
[4] = system: ACHN
[5] = system: BT-549
[6] = system: CAKI-1
[7] = system: CCRF-CEM
[8] = system: COLO 205
[9] = system: DU-145
[10] = system: EKVX
[11] = system: HCC 2998
[12] = system: HCT-116
[13] = system: HCT-15
[14] = system: HL-60
[15] = system: HOP-62
[16] = system: HOP-92
[17] = system: HT-29
[18] = system: Hs-578T
[19] = system: IGROV-1
[20] = system: K562
[21] = system: KM12
[22] = system: LOX IMVI
[23] = system: M14
[24] = system: MCF7
[25] = system: MDA-MB-231
[26] = system: MDA-MB-435
[27] = system: MDA-N
[28] = system: MOLT-4
[29] = system: NCI-H226
[30] = system: NCI-H23
[31] = system: NCI-H460
[32] = system: NCI-H522
[33] = system: NCI/ADR-RES
[34] = system: OVCAR-3
[35] = system: OVCAR-4
[36] = system: OVCAR-5
[37] = system: OVCAR-8
[38] = system: PC-3
[39] = system: RPMI-8226
[40] = system: RXF 393
[41] = system: SF-268
[42] = system: SF-295
[43] = system: SF-539
[44] = system: SK-MEL-28
[45] = system: SK-MEL-2
[46] = system: SK-MEL-5
[47] = system: SK-OV-3
[48] = system: SN12C
[49] = system: SNB-19
[50] = system: SNB-75
[51] = system: SR
[52] = system: SW-620
[53] = system: T47D
[54] = system: TK-10
[55] = system: U-251
[56] = system: UACC-257
[57] = system: UACC-62
[58] = system: UO-31
[59] = system: Malme-3M

In the case of `CCCCCCCCCCCCCCC(C(=O)[O-])[n+]1ccccc1` (stereo unspecified), the GI50 [1] is reported as > 100 µM (inactive), the GI50 [2] is reported as > 100 µM (inactive) and the GI50 [3] is reported as > 100 µM (inactive). The GI50 [4] was > 100 µM (inactive), the GI50 [5] was > 100 µM (inactive) and the GI50 [6] was > 100 µM (inactive). For the same compound, the GI50 [7] was > 100 µM (inactive), the GI50 [8] was > 100 µM (inactive) and the GI50 [9] was > 100 µM (inactive). The GI50 [10] was > 100 µM (inactive), the GI50 [11] was 97.3 µM (inactive) and the GI50 [12] was > 100 µM (inactive). For the same compound, the GI50 [13] was > 100 µM, the GI50 [14] was 98.4 µM (inactive) and the GI50 [15] was > 100 µM (inactive). The GI50 [16] was > 100 µM (inactive), the GI50 [17] was > 100 µM (inactive) and the GI50 [18] was > 100 µM (inactive). For the same compound, the GI50 [19] was > 100 µM (inactive), the GI50 [20] was > 100 µM (inactive) and the GI50 [21] was > 100 µM (inactive). For the same compound, the GI50 [22] was > 100 µM (inactive), the GI50 [23] was > 100 µM (inactive) and the GI50 [24] was 16.1 µM (inactive). The GI50 [25] was > 100 µM (inactive), the GI50 [26] was > 100 µM (inactive) and the GI50 [27] was > 100 µM (inactive). The GI50 [28] was > 100 µM (inactive), the GI50 [29] was > 100 µM (inactive) and the GI50 [30] was > 100 µM (inactive). For the same compound, the GI50 [31] was > 100 µM (inactive), the GI50 [32] was > 100 µM (inactive) and the GI50 [33] was > 100 µM (inactive). The GI50 [34] was > 100 µM (inactive), the GI50 [35] was > 100 µM (inactive) and the GI50 [36] was 84.1 µM (inactive). For the same compound, the GI50 [37] was 98.6 µM (inactive), the GI50 [38] was 18.8 µM (inactive) and the GI50 [39] was > 100 µM (inactive). The GI50 [40] was 20.4 µM (inactive), the GI50 [41] was > 100 µM (inactive) and the GI50 [42] was > 100 µM (inactive). The GI50 [43] was > 100 µM (inactive), the GI50 [44] was > 100 µM (inactive) and the GI50 [45] was > 100 µM (inactive). For the same compound, the GI50 [46] was > 100 µM (inactive), the GI50 [47] was > 100 µM (inactive) and the GI50 [48] was 23.4 µM (inactive). The GI50 [49] was > 100 µM (inactive), the GI50 [50] was > 100 µM (inactive) and the GI50 [51] was > 100 µM (inactive). The GI50 [52] was > 100 µM (inactive), the GI50 [53] was > 100 µM (inactive) and the GI50 [54] was 15.1 µM (inactive). For the same compound, the GI50 [55] was 28.6 µM (inactive), the GI50 [56] was > 100 µM (inactive) and the GI50 [57] was 77.3 µM (inactive). The GI50 [58] was > 100 µM (inactive).
In the case of `O=c1[nH]c(Cc2ccccc2)nc2c1sc1nc3ccccc3n12`, the GI50 [1] is reported as > 100 µM (inactive), the GI50 [2] is reported as > 100 µM (inactive) and the GI50 [3] is reported as > 100 µM (inactive). For the same compound, the GI50 [4] was > 100 µM (inactive), the GI50 [5] was > 100 µM (inactive) and the GI50 [6] was > 100 µM (inactive). The GI50 [7] was > 100 µM (inactive), the GI50 [8] was > 100 µM (inactive) and the GI50 [9] was > 100 µM (inactive). The GI50 [10] was > 100 µM (inactive), the GI50 [11] was > 100 µM (inactive) and the GI50 [12] was > 100 µM (inactive). The GI50 [13] was > 100 µM, the GI50 [14] was > 100 µM (inactive) and the GI50 [16] was > 100 µM (inactive). The GI50 [17] was > 100 µM (inactive), the GI50 [18] was > 100 µM (inactive) and the GI50 [19] was > 100 µM (inactive). For the same compound, the GI50 [21] was > 100 µM (inactive), the GI50 [22] was > 100 µM (inactive) and the GI50 [23] was > 100 µM (inactive). For the same compound, the GI50 [24] was > 100 µM (inactive), the GI50 [25] was > 100 µM (inactive) and the GI50 [26] was > 100 µM (inactive). For the same compound, the GI50 [27] was > 100 µM (inactive), the GI50 [28] was > 100 µM (inactive) and the GI50 [29] was > 100 µM (inactive). For the same compound, the GI50 [30] was > 100 µM (inactive), the GI50 [31] was > 100 µM (inactive) and the GI50 [32] was > 100 µM (inactive). The GI50 [33] was > 100 µM (inactive), the GI50 [34] was > 100 µM (inactive) and the GI50 [36] was > 100 µM (inactive). For the same compound, the GI50 [37] was > 100 µM (inactive), the GI50 [38] was > 100 µM (inactive) and the GI50 [39] was > 100 µM (inactive). For the same compound, the GI50 [40] was > 100 µM (inactive), the GI50 [41] was > 100 µM (inactive) and the GI50 [42] was > 100 µM (inactive). The GI50 [43] was > 100 µM (inactive), the GI50 [44] was > 100 µM (inactive) and the GI50 [45] was > 100 µM (inactive). For the same compound, the GI50 [46] was > 100 µM (inactive), the GI50 [47] was > 100 µM (inactive) and the GI50 [48] was > 100 µM (inactive). For the same compound, the GI50 [49] was > 58.3 µM (inactive), the GI50 [50] was > 100 µM (inactive) and the GI50 [51] was > 100 µM (inactive). The GI50 [52] was > 100 µM (inactive), the GI50 [53] was 60.5 µM (inactive) and the GI50 [54] was > 100 µM (inactive). For the same compound, the GI50 [55] was > 100 µM (inactive), the GI50 [56] was > 100 µM (inactive) and the GI50 [57] was > 100 µM (inactive). The GI50 [58] was > 100 µM (inactive).
In the case of `CSc1ncc2c(C#N)c3ccccn3c(=O)c2n1`, the GI50 [1] is reported as > 100 µM (inactive), the GI50 [2] is reported as > 100 µM (inactive) and the GI50 [3] is reported as > 100 µM (inactive). For the same compound, the GI50 [4] was > 100 µM (inactive), the GI50 [5] was > 100 µM (inactive) and the GI50 [6] was > 100 µM (inactive). The GI50 [7] was > 100 µM (inactive), the GI50 [8] was > 100 µM (inactive) and the GI50 [9] was > 100 µM (inactive). The GI50 [10] was > 100 µM (inactive), the GI50 [11] was > 100 µM (inactive) and the GI50 [12] was 88.5 µM (inactive). The GI50 [13] was > 100 µM, the GI50 [14] was > 100 µM (inactive) and the GI50 [15] was > 100 µM (inactive). The GI50 [16] was > 100 µM (inactive), the GI50 [17] was > 100 µM (inactive) and the GI50 [18] was > 100 µM (inactive). For the same compound, the GI50 [19] was > 100 µM (inactive), the GI50 [20] was > 100 µM (inactive) and the GI50 [21] was > 100 µM (inactive). For the same compound, the GI50 [22] was > 100 µM (inactive), the GI50 [23] was > 100 µM (inactive) and the GI50 [24] was > 100 µM (inactive). The GI50 [25] was > 100 µM (inactive), the GI50 [26] was > 100 µM (inactive) and the GI50 [27] was > 100 µM (inactive). The GI50 [28] was > 100 µM (inactive), the GI50 [59] was > 100 µM (inactive) and the GI50 [29] was > 100 µM (inactive). For the same compound, the GI50 [30] was > 100 µM (inactive), the GI50 [31] was 57.3 µM (inactive) and the GI50 [33] was > 100 µM (inactive). The GI50 [34] was > 100 µM (inactive), the GI50 [35] was > 100 µM (inactive) and the GI50 [36] was > 100 µM (inactive). The GI50 [37] was > 100 µM (inactive), the GI50 [38] was > 100 µM (inactive) and the GI50 [39] was > 100 µM (inactive). For the same compound, the GI50 [40] was > 100 µM (inactive), the GI50 [41] was > 100 µM (inactive) and the GI50 [42] was > 100 µM (inactive). The GI50 [43] was > 100 µM (inactive), the GI50 [44] was > 100 µM (inactive) and the GI50 [45] was > 100 µM (inactive). For the same compound, the GI50 [46] was > 100 µM (inactive), the GI50 [47] was > 100 µM (inactive) and the GI50 [48] was > 100 µM (inactive). For the same compound, the GI50 [49] was > 100 µM (inactive), the GI50 [50] was > 100 µM (inactive) and the GI50 [51] was > 100 µM (inactive). For the same compound, the GI50 [52] was 52.6 µM (inactive), the GI50 [53] was > 100 µM (inactive) and the GI50 [54] was > 100 µM (inactive). The GI50 [55] was > 100 µM (inactive), the GI50 [56] was > 100 µM (inactive) and the GI50 [57] was > 100 µM (inactive). For the same compound, the GI50 [58] was > 100 µM (inactive).

— ChEMBL document CHEMBL1201862, “PubChem BioAssay data set” (2004)
